Counter-ions that a name gives are not always drawn.
Experiments:
[1] = molecular target: T1, stearoyl-CoA desaturase (SCD1) (Mus musculus, UniProt P13516); test: SCD microsomal assay using mouse liver microsomes (release of 3H2O from [9,10-3H]stearoyl-CoA); type: biochemical; conditions: 15 min incubation, 25° C.
T1 construct: Male ICR outbread mice, on a high-carbohydrate, low fat diet; from tissue; host or cells: liver microsomes of male ICR mice on a high-carbohydrate, low fat diet
T1 sequence (P13516 1-355): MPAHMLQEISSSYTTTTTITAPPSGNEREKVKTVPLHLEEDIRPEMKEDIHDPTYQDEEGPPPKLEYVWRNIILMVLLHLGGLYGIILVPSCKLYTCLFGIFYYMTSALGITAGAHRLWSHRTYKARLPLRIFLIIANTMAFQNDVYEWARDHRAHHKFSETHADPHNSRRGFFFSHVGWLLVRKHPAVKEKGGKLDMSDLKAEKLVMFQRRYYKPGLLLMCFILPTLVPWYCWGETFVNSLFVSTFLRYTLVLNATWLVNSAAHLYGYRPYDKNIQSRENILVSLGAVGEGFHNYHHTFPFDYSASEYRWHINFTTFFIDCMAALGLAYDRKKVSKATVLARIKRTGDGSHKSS
Source text: The identification of compounds of the invention as SCD inhibitors was readily accomplished using the SCD enzyme and microsomal assay procedure described in Shanklin J. and Summerville C., Proc. Natl. Acad. Sci. USA (1991), Vol. 88, pp. 2510-2514.
Measuring Stearoyl-CoA Desaturase Inhibition Activity of a Test Compound Using Mouse Liver Microsomes
The identification of compounds of the invention as SCD inhibitors was readily accomplished using the SCD microsomal assay procedure described in Shanklin J. and Summerville C., Proc. Natl. Acad. Sci. USA (1991), Vol. 88, pp. 2510-2514.
Male ICR outbread mice, on a high-carbohydrate, low fat diet, under light halothane (15% in mineral oil) anesthesia are sacrificed by exsanguination during periods of high enzyme activity. Livers are immediately rinsed with cold 0.9% NaCl solution, weighed and minced with scissors. All procedures are performed at 4′C unless specified otherwise. Livers are homogenized in a solution (1/3 w/v) containing 025 M sucrose, 62 mM potassium phosphate buffer (pH 7.0), 0.15 M KCL 15 mM N-acetyleysteine, 5 mM MgCl2, and 0.1 mM EDTA using 4 strokes of a Potter-Elvehjem tissue homogenizer. The homogenate is centrifuged at 10,400×g for 20 min to eliminate mitochondria and cellular debris. The supernatant is filtered through a 3-layer cheesecloth and centrifuged at 105,000×g for 60 min. The microsomal pellet is gently resuspended in the same homogenization solution with a small glass/teflon homogenizer and stored at −70° C. The absence of mitochondrial contamination is enzymatically assessed. The protein concentration is measured using bovine serum albumin as the standard.
Desaturase activity is measured as the release of ^3H2O from [9,10-^3H]stearoyl-CoA. Reactions per assay point conditions are as follows: 2 μL 1.5 mM stearoyl-CoA, 0.25 μL 1 mCi/mL ^3H-stearoyl CoA, 10 μL 20 mM NADH, 36.75 μL 0.1 M PK buffer (K2HPO4/NaH2PO4, pH 7.2). The test compound or control solution is added in a 1 μL volume. Reactions are started by adding 50 μL of microsomes (1.25 mg/mL). The plates are mixed and after 15 min incubation on a heating block (25° C.), the reactions are stopped by the addition of 10 μL 60% PCA. An aliquot of 100 μL is then transferred to a fitter plate pretreated with charcoal and the plate centrifuged at 4000 rpm for 1 minute. The flow through containing the ^3H2O released by the SCD1 desaturation reaction is added to scintillation fluid and the radioactivity measured in a Packard TopCount. The data is analysed to identify the IC50 for test compounds and reference compounds.
The activity was defined in terms of % SCD enzyme activity remaining at the desired concentration of the test compound or as the IC50 concentration. The IC50 (affinity) of the example compounds toward the stearoyl-CoA desaturase is comprised between around […] and 0.0001 μM or between around […] 0.0001 μM or between around 1 μM and 0.0001 μM.

SMILES	IC50 [1] [nM]	melting point
CNC(=O)c1ccnc(NC(=O)N2CCC3(CC2)CC(=O)c2ccc(F)cc2O3)c1 [Example 1, 7-fluoro-N-(4-(methylcarbamoyl)pyridin-2-yl)-4-oxospiro[chroman-2,4′-piperidine]-1′-carboxamide hydrochloride]	524	
CNC(=O)c1ccnc(NC(=O)N2CCC3(CCc4ccc(F)cc4O3)CC2)c1 [Example 1.1, 7-fluoro-N-(4-(methylcarbamoyl)pyridin-2-yl)spiro[chroman-2,4′-piperidine]-1′-carboxamide]	17	177 to 179 °C
CNC(=O)c1ccnc(NC(=O)N2CCC3(CCc4cccc(Cl)c4O3)CC2)c1 [Example 1.2, 8-chloro-N-(4-(methylcarbamoyl)pyridin-2-yl)spiro[chroman-2,4′-piperidine]-1′-carboxamide hydrochloride]	3	
CNC(=O)c1ccnc(NC(=O)N2CCC3(CC2)CC(=O)c2cccc(Cl)c2O3)c1.Cl [Example 1.3, 8-chloro-N-(4-(methylcarbamoyl)pyridin-2-yl)-4-oxospiro[chroman-2,4′-piperidine]-1′-carboxamide hydrochloride]	56	215 °C (dec.)
CNC(=O)c1ccnc(NC(=O)N2CCC3(CCc4cc(F)ccc4O3)CC2)c1 [Example 1.4, 6-fluoro-N-(4-(methylcarbamoyl)pyridin-2-yl)spiro[chroman-2,4′-piperidine]-1′-carboxamide]		175 to 176 °C
CNC(=O)c1cccc(NC(=O)N2CCC3(CCc4ccc(F)cc4O3)CC2)n1 [Example 1.5, 7-fluoro-N-(6-(methylcarbamoyl)pyridin-2-yl)spiro[chroman-2,4′-piperidine]-it-carboxamide]		126 to 128 °C
CNC(=O)c1cncc(NC(=O)N2CCC3(CCc4ccc(F)cc4O3)CC2)c1 [Example 1.6, 7-fluoro-N-(5-(methylcarbamoyl)pyridin-3-yl)spiro[chroman-2,4′-piperidine]-1′-carboxamide]		231 to 233 °C
CNC(=O)c1ccnc(NC(=O)N2CCC3(CC2)Cc2ccccc2C3)c1 [Example 1.7, N-(4-(methylcarbamoyl)pyridin-2-yl)-1,3-dihydrospiro[indene-2,4′-piperidine]-1′-carboxamide]		229 to 231 °C
Cn1cc(CNC(=O)c2ccnc(NC(=O)N3CCC4(CCc5cc(F)ccc5O4)CC3)c2)cn1 [Example 2.1, 6-fluoro-N-(4-{[(1-methyl-1H-pyrazol-4-yl)methyl]carbamoyl}pyridin-2-yl)-3,4-dihydro-1′H-spiro[chromene-2,4′-piperidine]-1′-carboxamide hydrochloride]	40	
NC(=O)c1ccnc(NC(=O)N2CCC3(CCc4cc(F)ccc4O3)CC2)c1 [Example 3, N-(4-carbamoylpyridin-2-yl)-6-fluorospiro[chroman-2,4′-piperidine]-1′-carboxamide]		265 to 267 °C
Cc1nc(NC(=O)N2CCC3(CCc4ccc(F)cc4O3)CC2)sc1C(=O)NCc1ccccn1 [Example 4, 7-fluoro-N-(4-methyl-5-(pyridin-2-ylmethylcarbamoyl)thiazol-2-yl)spiro[chroman-2,4′-piperidine]-1′-carboxamide]	48	165 to 167 °C
